Experimental findings from PMC6023887, “GTP-binding facilitates EB1 recruitment onto microtubules by relieving its auto-inhibition” (Scientific Reports, 2018) are described below.

The target in assay [1] is T1, full length EB1 (His-tagged) (Homo sapiens, UniProt Q15691).
T1 construct: gene MAPRE1; full length 268 residues, His-tagged, recombinant, purified as in authors' earlier work; dimer
T1 sequence (Q15691 1-268): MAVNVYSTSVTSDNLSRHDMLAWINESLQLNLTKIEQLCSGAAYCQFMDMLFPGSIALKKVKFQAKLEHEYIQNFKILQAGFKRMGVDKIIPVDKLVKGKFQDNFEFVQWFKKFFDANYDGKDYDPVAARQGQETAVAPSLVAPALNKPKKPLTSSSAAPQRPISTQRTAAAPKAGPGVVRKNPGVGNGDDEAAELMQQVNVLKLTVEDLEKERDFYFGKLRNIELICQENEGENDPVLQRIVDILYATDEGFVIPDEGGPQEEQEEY
Briefly: isothermal titration calorimetry. Particulars: 80 mM PIPES, 1 mM EGTA, 1 mM MgCl2, pH 6.9, 25 °C; N fixed at 2; range over three experiments, printed jointly for EB1n and full length; saturation incomplete. The format is binding. A general note: In ITC the heat of successive injections is recorded.

Assay [2] concerns the target T2, EB1n (EB1 N-terminus, residues 1-151) (Homo sapiens, UniProt Q15691).
T2 construct: gene MAPRE1; N-terminal fragment 1-151 containing CH domain (1-130); pET3d, E. coli BL21(DE3), untagged, cation exchange; mainly monomer
T2 sequence (Q15691 1-151): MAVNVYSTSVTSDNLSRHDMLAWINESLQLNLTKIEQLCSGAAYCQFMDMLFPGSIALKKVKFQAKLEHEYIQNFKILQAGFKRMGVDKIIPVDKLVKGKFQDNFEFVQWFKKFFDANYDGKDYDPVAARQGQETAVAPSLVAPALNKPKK
Kind of assay: isothermal titration calorimetry. The format is binding. The following applies: 80 mM PIPES, 1 mM EGTA, 1 mM MgCl2, pH 6.9, 25 °C; N fitted freely; range over three experiments, printed jointly for EB1n and full length; noisy data; NMR in other buffers gives mM Kd.

Assay [3] concerns the target Rhodamine labeled microtubules polymerized with GTPγS (UniProt P02550 1-451, rhodamine on part of the tubulin (3 µM rhodamine-labeled tubulin with 40 µM tubulin)); which chain carries it is not stated | rhodamine on part of the tubulin (3 µM rhodamine-labeled tubulin with 40 …). Kind of assay: confocal fluorescence imaging of purified EB1-GFP on microtubules held on coverslips; rhodamine microtubules (GTPγS) on poly-lysine coverslips, washed free of GTPγS; 10 µM EB1-GFP protein added, 10 min, 37 °C, BRB80 pH 6.9; fixed with 1% glutaraldehyde; GFP intensity per pixel along microtubules. Particulars: both partners purified.

The target in assay [4] is Microtubules polymerized from tubulin with GTPγS (UniProt P02550 1-451). Kind of assay: binding to microtubules held on coverslips, wash, SDS-PAGE of the bound protein; microtubules (40 µM tubulin, GTPγS) on poly-lysine coverslips, washed; 10 µM EB1-GFP protein added, 10 min at 37 °C (15 min in the legend), BRB80; unbound protein washed off; Coomassie bands normalized against tubulin; the paper calls it sedimentation. Particulars: both partners purified.

Changes are numbered by the printed parent chain. In names and notes the source's numbering stands.

`Nc1nc2c(ncn2[C@@H]2O[C@H](COP(=O)(O)OP(=O)(O)OP(=O)(O)O)[C@@H](O)[C@H]2O)c(=O)[nH]1` [GTP]: the Kd in assay [1] and in assay [2] was ~10 to ~30 µM throughout.

B1: EB1 R17A H18A-GFP (natural protein, human, UniProt Q15691 1-268, looked up)
chain: T1 sequence (Q15691 1-268) with R17A, H18A
notes: EB1, human, full-length cDNA with R17A and H18A; Made with the WT EB1-GFP pET22b eGFP plasmid as template; also called R17A H18A EB1-GFP; mutant EB1-GFP; source: E. coli BL21 (DE3), purified (Ni-NTA)
In the case of B1, the “fold increase of GFP intensity per pixel on microtubules against wild-type EB1-GFP” value in assay [3] is around 2 fold. In addition, the “fold amount bound to microtubules against wild-type EB1” value in assay [4] is around 1.5 fold.
